Here are results for 2 compounds from EP4660190A1, “PHARMACEUTICALLY ACCEPTABLE SALT OF COMPOUND AND PREPARATION METHOD THEREFOR” (Jiangsu Chia Tai Fenghai Pharmaceutical Co., Ltd., priority 2023, dated 2024).

In data set [1] the test system is Middle cerebral artery occlusion (MCAO) models of SD rata. The experiment in a line: Rat MCAO model, 28-day dosing, pathological examination (restoration area, perfused blood vessels). The format is in vivo, SD rats. To be noted: for Proportion of samples showing good recovery (%): restoration area > 30%; for No. of erythrocyte-containing blood vessels ≤10: number of animals. On the procedure: Middle cerebral artery occlusion (MCAO) models of SD rata were constructed by using the suture occlusion method. The rats were administered with the test compound for 28 consecutive days. The pharmacodynamic evaluation on the test compound for cerebral stroke was obtained based on general observation and neurobehavioral assessment. […] The ECA was ligated. The ICA was temporarily occluded. Sutures were threaded at both the proximal end and the distal end of CCA. The distal end was securely ligated, and a loosely tied knot was placed at the proximal end. A small incision was made on the CCA between these two sutures. […] The threading was halted temporarily when reaching the artery clamp of ICA. The pre-ligation suture was further tightened. The artery clamp blocking the blood flow in the ICA was removed, allowing the suture occlusion to be advanced into the ICA until it entered the intracranial region. […] The insertion was stopped at the moment, and the time was recorded. The artery clamp on the CCA was removed and the incision was closed after no active bleeding was observed. The ischemic rats were placed at room temperature to keep their body temperature at 37°C, and anesthesia induction could be carried out 120min later. The suture was slowly and gradually withdrawn under anesthesia until the proximal end retracted into the ECA, thereby initiating reperfusion of the middle cerebral artery. Animals received the designated dosage immediately (within 10 min) after reperfusion. This dosing regimen continued once daily for a duration of 28 days, with the day of operation being defined as D1 (Day 0). […] After the completion of the 28-day dosing period, all surviving animals in the study were euthanized, and their brains were rapidly collected for pathological analysis. […] Table 8 Results of Grid Walking Test […] Table 10 Summary of Tissue Restoration in Each Group

For data set [2] the following is noted: rat, value in literature, cited from earlier work.
For data set [3], the system named is Middle cerebral artery occlusion (MCAO) models of SD rats. The experiment in a line: Rat MCAO model, 7 daily doses, neurobehavioral scoring (Bederson, NSS). The format is in vivo. The arrangement: scale not given here. As to conditions: Mean±SD; for NSS: 60mg/kg. From the text: Middle cerebral artery occlusion (MCAO) models of SD rats were constructed using the suture occlusion method to evaluate the neuroprotective effect of the compound on neurons of rats after cerebral ischemia-reperfusion. […] The ECA was ligated. The ICA was temporarily occluded. Sutures were threaded at both the proximal end and the distal end of CCA. The distal end was securely ligated, and a loosely tied knot was placed at the proximal end. A small incision was made on the CCA between these two sutures. […] The threading was halted temporarily when reaching the artery clamp of ICA. The pre-ligation suture was further tightened. The artery clamp blocking the blood flow in the ICA was removed, allowing the suture occlusion to be advanced into the ICA until it entered the intracranial region. […] The insertion was stopped at the moment, and the time was recorded. The artery clamp on the CCA was removed and the incision was closed after no active bleeding was observed. The ischemic rats were placed at room temperature to keep their body temperature at 37°C, and anesthesia induction could be carried out 120min later. The suture was slowly and gradually withdrawn when the rats were maintained under anesthesia, so that the proximal end of the suture returned to the ECA, thereby initiating reperfusion of the middle cerebral artery. […] A single dose was administered immediately after reperfusion (within 10 minutes), followed by one dose per day for a total of 7 consecutive doses (including the first dose). Except for the initial administration, all subsequent doses were given between 4:00 PM and 7:00 PM each day. […] Animals were euthanized 7 days after ischemia reperfusion, and the brains were rapidly taken, frozen, and dissected for TTC staining. The normal tissues were rose-red after staining, and the infarcted tissues were white. The infarct size (%) percentage, calculated as the weight of infarcted tissues to the weight of the whole brain, is used to evaluate the degree of cerebral ischemic injury in rats. […] Table 12 Cerebral infarct size and cerebral infarction inhibition rate of experimental animals (2) Neurobehavioral scoring: […] Table 13: Results of Neurobehavioral Scores in Animals

The nature of data set [4]: Distribution in plasma and brain tissues of rats. As to conditions: rat, 20mg/kg p.o. The data set is classed as in vivo, Male SD rats. From the text:
The concentration of compound in the plasma and brain tissue samples was quantified by liquid chromatography-tandem mass spectrometry (LC-MS/MS).

[5] abbreviates: 60mg/kg p.o. q.d. 28 days, N = 14.
[6] abbreviates: high dose 20mg/kg p.o. q.d. 28 days.
Setting [7] is: high dose 20mg/kg p.o. q.d. 28 days, N = 12.
Where [8] appears, read: low dose 6mg/kg p.o. q.d. 28 days.
The mark [9] stands for this setting: low dose 6mg/kg p.o. q.d. 28 days, N = 12.

Where two headings read alike, the source gives them in different places. Marks after values point to notes of the source that are not given here.

By Cmax is commonly meant the highest concentration seen after dosing. In general, Tmax refers to the time from dosing to the highest level. With `CCCCC1OC(=O)c2ccccc21` (stereo not shown) [Butylphthalide, butylphthalide, reference compound], in data set [1] (60mg/kg p.o. q.d. 28 days), the “Proportion of erythrocyte-containing blood vessels>10 (%)” value amounted to 93.3% and the “Proportion of samples showing good recovery (%)” value came out at 21.4%. For the same compound, in data set [1] (setting [5]), the “Number of samples Restoration area > 30%” value amounted to 3 and the “Number of samples Restoration area ≤ 30%” value was found to be 11. In addition, the “No. of erythrocyte-containing blood vessels ≤10” value in data set [1] (60mg/kg p.o. q.d. 28 days, N = 15) is given as 1. Further, in data set [2] (i.v. 10 mg/kg), the AUC0-inf was 8620.0 ng·h/mL, the AUC0-t was 7230.0 ng·h/mL, the MRTinf is on record as 2.4 h and the T1/2 is listed as 2.2 h. In data set [2] (p.o. 60 mg/kg), the AUC0-inf was 8560.0 ng·h/mL, the AUC0-t was 7110.0 ng·h/mL, the Cmax was 2900.0 ng/mL and the MRTinf is 3.8 h. In data set [2] (p.o. 60 mg/kg), the T1/2 is listed as 2.83 h and the time of peak concentration (Tmax) is listed as 0.7 h. This compound also showed a Bederson in data set [3] (60mg/kg group, score after surgery) of 3.00± 0.00. The NSS in data set [3] (D0 (one day before surgery)) is listed as 0.00± 0.00. The NSS in data set [3] (D2 (1 day after surgery)) turned out to be 6.71± 1.36. The NSS in data set [3] (D4 (3 days after surgery)) turned out to be 5.75±0.92. The NSS in data set [3] (D6 (5 days after surgery)) is given as 4.88± 1.73. Also, in data set [3] (D8 (7 days after surgery)), the NSS turned out to be 4.04±1.20. Also, in data set [4] (0.5 h), the “Measured value in brain tissues Concentration” value came to 28.5 ng/g and the “Measured value in plasma Concentration” value is given as 26.0 ng/mL. In data set [4] (1 h), the “Measured value in brain tissues Concentration” value is 22.8 ng/g and the “Measured value in plasma Concentration” value came out at 19.1 ng/mL. For the same compound, in data set [4] (4h), the “Measured value in brain tissues Concentration” value stood at 10.2 ng/g and the “Measured value in plasma Concentration” value came out at 7.2 ng/mL. The “Measured value in plasma Concentration” value in data set [4] (24 h) is recorded as 1.7 ng/mL.
With `CCC/C(O)=C1/C(=O)Oc2ccccc21` [Compound (I)], the entries for the “Proportion of erythrocyte-containing blood vessels>10 (%)” value in data set [1] (setting [6]) and in data set [1] (setting [8]) were 92.3% and 100%, respectively. Also, the “Number of samples Restoration area > 30%” value in data set [1] (setting [7]) was 9**; in data set [1] (setting [9]), 4. Moreover, the “Number of samples Restoration area ≤ 30%” value in data set [1] (setting [7]) was found to be 3; in data set [1] (setting [9]), 8. Further, the “Proportion of samples showing good recovery (%)” value in data set [1] (setting [6]) was 75.0%; in data set [1] (setting [8]), 33.3%. Further, the “No. of erythrocyte-containing blood vessels ≤10” value is recorded as 1 in data set [1] (high dose 20mg/kg p.o. q.d. 28 days, N = 13) and 0 in data set [1] (setting [9]). In addition, the “Measured value in brain tissues Concentration” value in data set [4] (0.5 h) amounted to 8733.3 ng/g; in data set [4] (1 h) it was 5726.7 ng/g; in data set [4] (4h), 5030.0 ng/g; in data set [4] (24 h) it was 285.3 ng/g. In addition, the “Measured value in plasma Concentration” value in data set [4] (0.5 h) is recorded as 241333.3 ng/mL; in data set [4] (1 h) it was 192333.3 ng/mL; in data set [4] (4h) it was 182333.3 ng/mL; in data set [4] (24 h), 23500.0 ng/mL.
